Source: EPA's ToxValDB 9.5
Several values for one entry are separate records, joined by “and”; a condition that tells them apart may be missing. Equal values may be shown once.

Key:
Rattus norvegicus [1] = conditions: Hershberger, duration: 10 days, oral, gavage, Sprague-Dawley
Canidae [2] = conditions: oral, Dog Other
Mus musculus [3] = conditions: chronic; duration: 103 weeks; oral; gavage; M/F; B6C3F1; hepatic
Rattus norvegicus [4] = conditions: subchronic; duration: 90 days; oral; diet; F; other
Canidae [5] = conditions: oral, M/F, Dog Other
Rattus norvegicus [6] = conditions: chronic; duration: 2 years; oral; gavage; M/F; kidney pathology
Oryctolagus sp. = conditions: acute, New Zealand; for LD50: dermal, occlusive
Mus musculus [7] = conditions: acute
Rattus norvegicus [8] = test: LD0; higher = less toxic; conditions: acute
Canidae [9] = conditions: oral, Beagle
Rattus norvegicus [10] = tested on: Rattus norvegicus
Homo sapiens = conditions: clinical, oral, M/F
Canidae [11] = conditions: oral, Beagle; remark: listed apart in the source
[12] = chronic, duration: 1 years, diet, M/F, Increased plasma cholesterol (males)
[13] = chronic, Decreased body weight gain, altered serum chemistry parameters (decreased serum cholesterol, total protein, and serum albumin and globulin …
[14] = active + Negative + Antiandrogenic + anti-androgenic + significant increase in liver wt at 100 / decrease in AST wt and serum Testosterone …
[15] = chronic, reduced erythrocyte counts
[16] = active + Negative + Antiandrogenic + anti-androgenic + DP and LABC decreased in high dose
[17] = chronic, duration: 12 months, diet, increase in methemoglobin + Increased liver weights
[18] = radioactive iodide uptake inhibition (raiu) in the thyroid

SMILES: CC1=CC(=O)CC(C)(C)C1 [Isophorone]
- NOEL (Rattus norvegicus [1]; inactive + Negative + Negative + neither + increase age at PPS, decrease wt of SV, decrease testosterone at 800 / NS increase in liver wt …): 200 mg/kg-day
- NOEL (Canidae [2]; subchronic, duration: 90 days, capsule, Kidney: Lesions): 150 mg/kg-day
- LOAEL (Mus musculus [3]): 179 mg/kg-day
- NOAEL (Rattus norvegicus [4]): 312 mg/kg-day
- NOEL (Canidae [5]; subchronic, duration: 90 days, diet, no effects): 150 mg/kg-day
- LEL (Rattus norvegicus [6]): 250 mg/kg-day

SMILES: ON=C1CCCCC1 [Cyclohexanone oxime]
- LD50 (Oryctolagus sp.): > 5000 mg/kg
- LD50 (Mus musculus [7]; injection, Intraperitoneal): 250 mg/kg
- LD0 (Rattus norvegicus [8]; oral, gavage, Fischer 344): > 300 mg/kg

SMILES: N#Cc1c(N)nc(NC2CC2)nc1N [Dicyclanil]
- LOEL (Canidae [9]; [12]): 4.4 mg/kg-day
- NOEL (Canidae [9]; [12]): 0.71 mg/kg-day

SMILES: Cl.c1ccc([C@H]2CN3CCSC3=N2)cc1 [Levamisole hydrochloride]
- LOEL (Canidae [9]; chronic, duration: 14 months, capsule, Re-emergence of haemolytic anaemia): 1.25 mg/kg-day
- LOEL (Canidae [9]; immunotoxicology, duration: 14 months, capsule, Re-emergence of haemolytic anaemia): 1.25 mg/kg-day

SMILES: CCC(C#N)CC#N (centres undefined) [2-Ethylbutanedinitrile]
- LD0 (Rattus norvegicus [8]; oral, gavage, Sprague-Dawley): < 500 mg/kg

SMILES: CCC(=O)O.CCC(=O)O.O=C(Nc1cccc(C2=NCCN2)c1)Nc1cccc(C2=NCCN2)c1 [Imidocarb dipropionate]
- NOEL (Canidae [9]; subchronic, duration: 90 days, capsule, M/F, Transient reducting in food intake & histopathology in the liver): 5 mg/kg-day

SMILES: SCc1ccccc1 [Benzenemethanethiol]
- LC50 (Mus musculus [7]; inhalation, Swiss): 904 mg/m3
- LD50 (Rattus norvegicus [10]; acute, injection, Intraperitoneal, Wistar): 373 mg/kg
- LD50 (Rattus norvegicus [10]; acute, oral, gavage, Wistar): 493 mg/kg
- LD0 (Rattus norvegicus [8]; dermal, semiocclusive, Sprague-Dawley): ≥ 2000 mg/kg

SMILES: O=C1c2ccccc2C(=O)N1SC(Cl)(Cl)Cl [Folpet]
- NOEL (Rattus norvegicus [1]; inactive + Negative + Negative + neither + decrease in LABC and epididymis at 400 and 800 / decrease in liver and body wt (8% at 200 / 14…): 200 mg/kg-day
- NOEL (Canidae [2]; chronic, duration: 1 years, capsule, Blood: Altered chemistry + Whole body: Altered weight gain): 10 mg/kg-day
- LEL (Canidae [5]; [13]): 60 mg/kg-day
- NOEL (Canidae [5]; [13]): 10 mg/kg-day

SMILES: CCCCN(CC)c1c([N+](=O)[O-])cc(C(F)(F)F)cc1[N+](=O)[O-] [Benfluralin]
- LOEL (Rattus norvegicus [1]; [14]): 400 mg/kg-day and 750 mg/kg-day
- NOEL (Rattus norvegicus [1]; [14]): 100 mg/kg-day and 250 mg/kg-day
- NOAEL (Canidae [2]; chronic, duration: 1 years, diet, Erythrocytes: Decreased count): 25 mg/kg-day
- LOAEL (Canidae [5]; [15]): 125 mg/kg-day
- NOAEL (Canidae [5]; [15]): 25 mg/kg-day

SMILES: CNC(=O)O/N=C/C(C)(C)SC [Aldicarb]
- LOAEL (Homo sapiens; cholinesterase inhibition): 0.025 mg/kg-day
- NOAEL (Homo sapiens; cholinesterase inhibition): 0.01 mg/kg-day

SMILES: CC(O)CN(CC(C)O)c1nc(Nc2ccc(S(=O)(=O)[O-])cc2)nc(Nc2ccc(/C=C/c3ccc(Nc4nc(Nc5ccc(S(=O)(=O)[O-])cc5)nc(N(CC(C)O)CC(C)O)n4)cc3S(=O)(=O)[O-])c(S(=O)(=O)[O-])c2)n1.[Na+].[Na+].[Na+].[Na+] (centres undefined)
- LC50 (Canidae [11]; acute): > 500 mg/kg
- LC50 (Oryctolagus sp.; oral): > 1000 mg/kg
- LC50 (Mus musculus [7]; oral, NMRI): > 1000 mg/kg
- LD50 (Rattus norvegicus [10]; acute, oral, Wistar): > 2500 mg/kg
- NOAEL (Rattus norvegicus [10]; short-term, duration: 5 days, oral, gavage, F, Wistar): 1020 mg/kg-day
- NOAEL (Rattus norvegicus [10]; short-term, duration: 5 days, oral, gavage, M, Wistar): 1020 mg/kg-day
- NOAEL (Rattus norvegicus [10]; subchronic, duration: 13 weeks, oral, gavage, F, Wistar): 300 mg/kg-day
- NOAEL (Rattus norvegicus [10]; subchronic, duration: 13 weeks, oral, gavage, M, Wistar): 300 mg/kg-day

SMILES: CC(C)CC(C)(O)C#CC(C)(O)CC(C)C (centres undefined) [2,4,7,9-Tetramethyl-5-decyne-4,7-diol]
- LOAEL (Canidae [11]; chronic, duration: 130 days): 200 mg/kg-day
- LD50 (Oryctolagus sp.): > 1000 mg/kg
- LC50 (Rattus norvegicus [10]; acute, Inhalation): > 20 mg/L
- LD50 (Rattus norvegicus [10]; acute, dermal): > 2000 mg/kg
- LD50 (Rattus norvegicus [10]; acute, oral, Sprague-Dawley): > 500 mg/kg
- NOAEL (Rattus norvegicus [10]; reproduction developmental, oral, diet, Sprague-Dawley, generation: F0): 500 mg/kg-day
- NOAEL (Rattus norvegicus [10]; reproduction developmental, oral, diet, Sprague-Dawley, generation: F1): 500 mg/kg-day
- NOAEL (Rattus norvegicus [10]; short-term, duration: 28 days, oral, diet): 5000 ppm

SMILES: CO/N=C1\C[C@]2(C[C@@H]3C[C@@H](C/C=C(\C)C[C@@H](C)/C=C/C=C4\CO[C@@H]5[C@H](O)C(C)=C[C@@H](C(=O)O3)[C@]45O)O2)O[C@H](/C(C)=C/C(C)C)[C@H]1C [Moxidectin]
- NOEL (Canidae [9]; subchronic, duration: 90 days, diet, M/F, Decreased bodyweight & feed consumption): 0.3 mg/kg-day

SMILES: CCCN(CCC)c1c([N+](=O)[O-])cc(C(F)(F)F)cc1[N+](=O)[O-] [Trifluralin]
- LOEL (Rattus norvegicus [1]; [16]): 250 mg/kg-day and 450 mg/kg-day
- NOEL (Rattus norvegicus [1]; [16]): 75 mg/kg-day and 150 mg/kg-day
- NOEL (Canidae [2]; chronic, duration: 12 months, diet, Blood: Methemoglobinemia + Liver: Increased weight): 0.75 mg/kg-day
- LEL (Canidae [5]; [17]): 3.75 mg/kg-day
- NOEL (Canidae [5]; [17]): 0.75 mg/kg-day

SMILES: [O-][Cl+3]([O-])([O-])[O-] [Perchlorate]
- LOEL (Homo sapiens; [18]): 0.02 mg/kg-day
- NOEL (Homo sapiens; [18]): 0.007 mg/kg-day
